US20240182867A1, “CHEMICAL REPROGRAMMING OF HUMAN SOMATIC CELLS INTO PLURIPOTENT CELLS” (Peking University, priority 2021, published 2024)
Counter-ions that a name gives are not always drawn.

Columns and labels:
human fibroblasts = test: Conversion of human fibroblasts into monolayer epithelial-like cells; format: cell-based; conditions: added into the combination CHIR99021, 616452 and TTNPB
Description: KnockOut™ DMEM (Gibco, 10829018) supplemented with 10% Knockout Serum Replacement (KSR) (Gibco, 10828028), 10% FBS, 1% GlutaMAX™, 1% NEAA, 1% Penicillin-Streptomycin, 0.055 mM 2-mercaptoethanol, 50 μg/ml L-Ascorbic acid 2-phosphate (Vc2P) (Sigma, A8960), 5 mM LiCl (Sigma, L4408), 1 mM Nicotinamide (NAM) (Sigma, 72340), 2 mg/mL AlbuMAX™-II (Gibco, 11021045) and the small molecules CHIR999021 (10 μM), 616452 (10 μM), TTNPB (2 μM), SAG (0.5 μM), ABT-869 (1 μM), Rock inhibitor (Y-27632 (2 μM) or Tzv (2 μM))
(§1) Cells were maintained at 37° C. with 21% 02 and 5% CO2. The induction medium was changed every 3-4 days. HEFs were seeded at a density of 1-1.5×10^4 cells per well of a 12-well plate in 15%. FBS-DMEM medium. Change the medium into stage I induction medium on the next day. For stage I induction, single layer epithelial-like cells would emerge at day 4-6 and approach 80%-100% confluence at day 8-12, then change the medium into stage II induction medium. For stage II induction, multi-layered colonies appeared after 8-12 days treatment and these cell colonies would continually grow larger. After totally 16-20 days' stage II treatment, change the medium into stage III condition. For stage III induction, 8-12 days treatment of stage III medium is required and then change the medium into stage IV condition. For stage IV induction, VPA (500 μM) was included in the first 4 days. Primary hCiPSC colonies would emerge after 6-8 days' treatment. At the end of stage IV, immunofluorescent staining of co-expression of OCT4 and NANOG was used to confirm the generation of primary hCiPSC colonies. Primary hCiPSC colony number was calculated as the number of the compact OCT4 positive colonies. Reprogramming efficiency was calculated as the number of primary hCiPSC colonies divided by the number of input HEFs.

human somatic cells [1] = test: Replacement of small molecules by others targeting the same pathway; format: cell-based; conditions: for replacement of ABT 869: receptor tyrosine kinase inhibitor; for replacement of IWP-2: Wnt inhibitor
Description: VPA (500 μM), Tranylcypromine (10 μM), DZNep (0.05 μM), and EPZ004777 (5 μM) were included in the first 4 days. In several experiments, to testing the reprogramming efficiency after removing each small molecules, the indicated small molecules were removed from the cocktails.

human somatic cells [2] = test: hCiPSC colonies at the end of reprogramming after withdrawing individual chemicals from stage I or II; format: cell-based; conditions: factor removed
Description: as §1
(§2) In several experiments, to testing the reprogramming efficiency after removing each small molecules, the indicated small molecules were removed from the cocktails. The concentration of the small molecules used to regulate the same pathway or targets were indicated as follow: GSK3 inhibitors (CHIR99021: 3-15 μM; TD114-2: 0.5-2 μM; CHIR98014: 1-3 μM; GSK3βi XV: 0.05-0.2 μM); RA pathway agonists (TTNPB: 0.5-10 μM; Ch55: 1-5 μM; AM580: 0.1-1 μM); Rock inhibitors (TZV: 2-10 μM; Y27632: 2-15 μM; Fasudil: 2-10 μM; HA1100: 2-10 μM); TGFβ inhibitors (A8301: 0.1-5 μM; SB431542: 2-50 μM; LY364947: 0.5 μM; LY21: 0.5 μM; 616452: 10 μM).
(§3) In several experiments, to testing the reprogramming efficiency after regulate each small molecules, the indicated small molecules were removed from the cocktails. The concentration of the small molecules used to targeting the same pathway or targets were indicated as follow: GSK3 inhibitors (CHIR99021: 3-15 μM; TD114-2: 0.5-2 μM; CHIR98014: 1-3 μM; GSK3βi XV: 0.05-0.2 μM); TGFβ inhibitors (A8301: 0.2-5 μM; SB431542: 2-50 μM; 616452: 10 μM); RA pathway agonists (TTNPB: 0.2-10 μM; Ch55: 1-10 μM; AM580: 0.1-1 μM); Rock inhibitors (Y27632: 2-15 μM; Fasudil: 2-10 μM; HA1100: 2-10 μM; TZV: 2-10 μM); Smoothened agonists (SAG: 0.2-2 μM; Purmorphamine: 0.5-2 μM; Hg-Ag1.5: 0.5-1 μM; Human shh: 20-200 μM); histone demethylation inhibitors (Tranylcypromine: 2-50 μM; GSK2879: 0.02-2 μM; LSD-C76: 0.2-5 μM; S2101: 0.5-5 μM; LSD-2D: 0.2-5 μM; RN-1: 0.2-5 μM); DNMT inhibitors (5-azaC: 2-15 μM; Decitabine: 0.5-10 μM; RG108: 0.5-10 μM); JNK inhibitors (JNK-in-8: 0.2-2 μM; JNK-in-5: 0.5-1 μM; JNK-in-7: 0.2-2 μM; JNK-in-12: 0.2-0.5 μM); CBP/p300 bromodomain inhibitor (SGC-CBP30: 0.5-2 μM; I-CBP112: 0.5-5 μM; GNE272: 0.5-5μM; GNE409:0.5-5μM); Menin-MLL interaction inhibitor (VTP50469: 0.5-2μM; MI3454: 0.5-2μM; WDR5-IN-4: 0.5-2μM).

[3] = test system: fibroblast marker genes (somatic program); test: Withdrawing individual chemicals from stage I: fibroblast marker genes; format: cell-based, human; conditions: compound removed from stage I condition
Description: as §2, with “Ch55: 1-5 μM;” left out, “([…]:” for “(A8301:”, “μM). […] The data were analyzed using the delta-delta Ct method. GAPDH was used as a control to normalize the expression of target genes.” for “μM).”

LIN28A = test: Withdrawing individual chemicals from stage I: LIN28A expression; format: cell-based, human; conditions: compound removed from stage I condition
Description: as §2, with “Ch55: 1-5 μM;” left out, “([…]:” for “(A8301:”, “μM). […] The data were analyzed using the delta-delta Ct method. GAPDH was used as a control to normalize the expression of target genes.” for “μM).”

human somatic cells [4] = test: Reprogramming efficiency with supplemental inhibitors; format: cell-based; conditions: inhibitor added to induction medium
Description: KnockOut™ DMEM supplemented with 10% KSR, 10% FBS, 1% GlutaMAX™, 1% NEAA, 0.055 mM 2-mercaptoethanol, 1% Penicillin-Streptomycin, 50 μg/ml Vc2p, 5 mM LiCl, 1 mM NAM, 100 ng/ml bFGF (Origene) and the small molecules CHIR99021 (10-12 μM), 616452 (10 μM), TTNPB (2 μM), SAG (0.5 μM), ABT-869 (1 μM), Y-27632 (10 μM), JNKIN8 (1 μM), Tranylcypromine (2 μM), 5-Azacytidine (5 μM), UNC0224 (1 μM), Ruxolitinib (1 μM), BIRB796 (2 μM), Dorsormorphin (0.5-1 μM). To enhance the reprogramming efficiency, the CBP/p300 bromodomain inhibitor SGC-CBP30 (2 μM) and Menin-MLL interaction inhibitor VTP50469 were introduced in stage II induction medium.
as §3, with “0.5-2μM). […]” for “0.5-2μM).”

Cc1ccc(F)c(NC(=O)Nc2ccc(-c3cccc4[nH]nc(N)c34)cc2)c1 [ABT869, N-[4-(3-amino-1H-indazol-4-yl)phenyl]-N′-(2-fluoro-5-methylphenyl)-urea]
generation of the epithelial-like cells (human fibroblasts): can facilitate

COc1cc2ncc(-c3ccccc3)nc2cc1OC [AG1296, 6,7-Dimethoxy-3-phenylquinoxaline]
replacement of ABT 869 (human somatic cells [1]): able to replace ABT 869

Cc1cnc(-c2cnc(NCCNc3ccc(C#N)cn3)nc2-c2ccc(Cl)cc2Cl)[nH]1 [CHIR99021, 6-[[2-[[4-(2,4-Dichlorophenyl)-5-(5-methyl-1H-imidazol-2-yl)-2-pyrimidinyl]amino]ethyl]amino]-3-pyridinecarbonitrile]
generation of hCiPSCs (human somatic cells [2]): greatly impaired | downregulation of the somatic program [3]: inhibited | LIN28A activation (LIN28A): severely reduced

CC(=O)N1CCc2c(c(Nc3ccc(-c4cnn(C)c4)cc3F)nn2[C@H]2CCOC2)C1 [GNE272]
reprogramming efficiency (human somatic cells [4]): can improve

CCC(=O)N1CCOc2c(cc(-c3ccc(OC)c(OC)c3)cc2OC[C@H]2CCCN(C)C2)C1 [I-CBP112]
reprogramming efficiency (human somatic cells [4]): can improve

O=C(Nc1cccc2cccnc12)c1ccc(N2C(=O)[C@@H]3[C@H](C2=O)[C@@H]2C=C[C@H]3C2)cc1 [IWR-1]
replacement of IWP-2 (human somatic cells [1]): able to replace IWP-2

CNC1CCC(N(Cc2cccc(-c3ccncc3)c2)C(=O)c2sc3ccccc3c2Cl)CC1 (centres unmarked) [SAG]
generation of the epithelial-like cells (human fibroblasts): can facilitate

COc1ccc(CCc2nc3cc(-c4c(C)noc4C)ccc3n2C[C@H](C)N2CCOCC2)cc1Cl [SGC-CBP30, 2-[2-(3-chloro-4-methoxyphenyl)ethyl]-5-(3,5-dimethyl-4-isoxazolyl)-1-[(2S)-2-(4-morpholinyl)propyl]-1H-benzimidazole]
reprogramming efficiency (human somatic cells [4]): can improve

C/C(=C\c1ccc(C(=O)O)cc1)c1ccc2c(c1)C(C)(C)CCC2(C)C [TTNPB, 4-[(E)-2-(5,6,7,8-Tetrahydro-5,5,8,8-tetramethyl-2-naphthalenyl)-1-propenyl]benzoic acid]
generation of hCiPSCs (human somatic cells [2]): greatly impaired | downregulation of the somatic program [3]: inhibited | LIN28A activation (LIN28A): severely reduced

Clc1ccc(Nc2nnc(Cc3ccncc3)c3ccccc23)cc1 [Valatanib]
replacement of ABT 869 (human somatic cells [1]): able to replace ABT 869

Cc1cc(-c2ccc(CC(=O)Nc3ccc(-c4cccnc4)cc3)cc2)ccn1 [WNT-C59, 4-(2-Methyl-4-pyridinyl)-N-[4-(3-pyridinyl)phenyl]benzeneacetamide]
replacement of IWP-2 (human somatic cells [1]): able to replace IWP-2

O=c1[nH]c(-c2ccc(C(F)(F)F)cc2)nc2c1CSCC2 [XAV-939, 3,5,7,8-Tetrahydro-2-[4-(trifluoromethyl)phenyl]-4H-thiopyrano[4,3-d]pyrimidin-4-one]
replacement of IWP-2 (human somatic cells [1]): able to replace IWP-2

C[C@@H](N)[C@H]1CC[C@H](C(=O)Nc2ccncc2)CC1 [Y27632, (+)-(R)-trans-4-(1-aminoethyl)-N-(4-pyridyl)cyclohexanecarboxamide+++dihydrochloride]
generation of the epithelial-like cells (human fibroblasts): can facilitate

Cc1cccc(-c2n[nH]cc2-c2ccc3ncccc3n2)n1 [compound 616452, 2-(3-(6-Methylpyridin-2-yl)-1H-pyrazol-4-yl)-1,5-naphthyridine]
generation of hCiPSCs (human somatic cells [2]): greatly impaired | downregulation of the somatic program [3]: inhibited | LIN28A activation (LIN28A): severely reduced
